Biological target: T1, Membrane primary amine oxidase (Homo sapiens, UniProt Q16853)
T1 sequence (Q16853 whole entry): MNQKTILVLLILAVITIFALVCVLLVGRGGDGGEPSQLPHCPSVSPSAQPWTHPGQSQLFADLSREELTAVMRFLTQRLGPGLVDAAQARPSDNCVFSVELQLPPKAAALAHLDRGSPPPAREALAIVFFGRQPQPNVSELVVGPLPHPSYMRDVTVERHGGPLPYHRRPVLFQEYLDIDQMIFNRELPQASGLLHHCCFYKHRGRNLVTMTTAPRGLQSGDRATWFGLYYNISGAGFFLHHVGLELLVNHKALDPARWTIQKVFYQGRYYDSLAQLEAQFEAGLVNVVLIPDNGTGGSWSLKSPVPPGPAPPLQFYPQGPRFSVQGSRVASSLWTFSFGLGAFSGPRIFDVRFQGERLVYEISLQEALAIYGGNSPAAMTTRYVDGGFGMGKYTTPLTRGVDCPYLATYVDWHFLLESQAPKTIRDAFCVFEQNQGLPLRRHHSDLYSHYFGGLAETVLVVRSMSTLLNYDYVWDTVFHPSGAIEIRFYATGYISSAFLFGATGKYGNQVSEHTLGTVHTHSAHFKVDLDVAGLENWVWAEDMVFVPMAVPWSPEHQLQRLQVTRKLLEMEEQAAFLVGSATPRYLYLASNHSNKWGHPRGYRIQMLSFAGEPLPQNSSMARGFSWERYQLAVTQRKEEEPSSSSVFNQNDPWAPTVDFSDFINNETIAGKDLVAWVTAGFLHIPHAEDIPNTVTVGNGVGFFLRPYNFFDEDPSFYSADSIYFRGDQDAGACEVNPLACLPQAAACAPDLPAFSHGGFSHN
Experiment: Biological Assay
Experimental: All primary assays were performed at RT. with purified recombinantly expressed human SSAO. […] In addition, secondary- and selectivity assays were performed using SSAO prepared from various tissues or purified rat recombinant SSAO. The enzyme activity was assayed with benzylamine as substrate by measuring either benzaldehyde production, using 14C-labeled substrate, or by utilizing the production of hydrogen peroxide in a horseradish peroxidase (HRP) coupled reaction. Briefly, test compounds were dissolved in dimethyl sulfoxide (DMSO) to a concentration of 10 mM. Dose-response measurements were assayed by either creating 1:10 serial dilutions in DMSO to produce a 7 point curve or by making 1:3 serial dilutions in DMSO to produce 11 point curves.

IC50: in the range around 125 nM
Structure (SMILES): Cc1cc(N)ncc1-c1cc2ccncc2n1-c1ccc(Cl)cc1 [5-[1-(4-Chlorophenyl)-1H-pyrrolo[2,3-c]pyridin-2-yl]-4-methylpyridin-2-amine; bis(trifluoroacetic acid)]

From BindingDB's records for patent US10428066 (PROXIMAGEN, LLC, 2019)
